{"source": "paper PMC5690597", "about": "“Suppression and resolution of autoimmune arthritis by rhesus θ-defensin-1, an immunomodulatory macrocyclic peptide” (PLoS ONE, 2017)", "key": {"[1]": {"assay": "in vivo", "details": "plasma", "method": "Eight to 12-week old male Sprague Dawley rats (Harlan) were fitted with a surgically implanted jugular vein catheter for sequential blood collection (Culex NxT Automated In Vivo Sampling System; BASi, West Lafayette, IN), and monitored daily. RTD-1 dissolved in saline was injected subcutaneously at 5 mg/kg to 4 animals. Approximately 200 μl of blood was collected before peptide administration and at 0.25, 0.5, 1, 2, 4, 6, 8, 12, 18, 24, 30, 36, 48, 60, and 72 h after RTD-1 injection. Blood was collected into vials containing K3EDTA and plasma was collected after centrifugation. Plasma concentrations of RTD-1 were determined after solid phase extraction (SPE) by weak cation exchange (Oasis WCX, Waters, Milford, MA) and quantitation by C18 RP-UPLC, photodiode array (PDA) detection, and electrospray-ionization mass spectrometry (ESI-MS). Chromatography was performed on an Acquity H-class UPLC with an analytical PDA detector using Empower 3 software (Waters). Quantitative mass spectrometry was performed on post PDA eluent using a Micromass Quattro Ultima mass spectrometer with MassLynx 4.1 (Waters). Pharmacokinetic analysis was performed using parametric population modeling with maximum likelihood estimation via the EM algorithm with sampling (MLEM) as implemented in the ADAPT 5 (Version 5.0.49) PK/PD Systems Analysis Software (Biomedical Simulations Resource, University of Southern California)."}, "[2]": {"test_system": "FLS from PIA rats", "assay": "FLS invasion assay (Matrigel-coated transwell)", "type": "cell-based", "details": "RTD-1 0.1 μg/ml; 24 h; 7 different rat DA FLS cell lines, mean", "method": "Fibroblast-like synoviocytes (FLS) were isolated by enzymatic digestion of the synovial tissue from DA rats with PIA as previously described. Cells were washed and suspended in DMEM supplemented with 10% fetal bovine serum (Gibco, Grand Island, NY), 30 mg/ml L-glutamine (Sigma), 250 μg/ml amphotericin B (Sigma), and […] gentamicin (Gibco). After overnight culture, non-adherent cells were removed and adherent cells were cultured to approximately 70–90% confluence and passaged following detachment with 0.25% trypsin-EDTA for 3 min at 37°C. All experiments were performed with FLS after at least four passages.\nFLS invasiveness was assayed in vitro using Matrigel-coated inserts in a transwell system (Becton, Dickinson and Company, Franklin Lakes, NJ) as previously described. Briefly, DA rat FLS (70–80% confluent) isolated as described above were suspended at 2.0 × 10^4 cells/well in serum-free DMEM. Cells were placed in the upper compartment of the Matrigel-coated inserts to which RTD-1 was added to final concentrations of 0.1, 1, or 10 μg/ml. The lower compartment contained complete medium with 10% FBS and plates were incubated at 37°C. […] The opposite side of the insert was stained with Crystal Violet (Sigma) and the total number of invading cells was counted at 100X magnification. […]"}, "[3]": {"test_system": "DA/OlaHsd rats with pristane-induced arthritis", "assay": "Pristane-induced arthritis (PIA), established disease (AS ≥ 3)", "type": "in vivo, rat", "method": "Female DA/OlaHsd (D blood group allele and Agouti, also known as Dark Agouti), rats were obtained from Harlan Laboratories (Indianapolis, IN). Animals were allowed to acclimate for 48–72 hours prior to experimental use. Animals were fed standard chow ad lib during a 12-hour day/night cycle. PIA was induced in 5–7 week old animals (90–100 gm) by intradermal injection of 250 μl pristane (Sigma) divided into 3–5 sites at the base of the tail. Animals were monitored daily and disease severity of each limb was scored 0–4 using the method of Brand et al.. The severity scores for all limbs of individual animals were totaled to give an individual’s arthritis severity score (AS) ranging from zero for normal animals to maximum disease score of sixteen. […] In three separate trials, treatment was also blinded to scorers. […] Treatment with saline (vehicle), RTD-1, or anti-arthritic agents was randomized and initiated when an animal first presented with an AS of 3 or more. RTD-1 was administered subcutaneously with doses ranging from 0.2 to 5.0 mg/kg in an injection volume of 0.5 ml at intervals ranging from once a day (qd) to once every seven days (q7d). MTX was administered at 0.25 mg/kg by intraperitoneal injection q3d. Etanercept was administered at 0.4 mg/kg by subcutaneous injection q3d."}, "[4]": {"biological_target": "Cathepsin K (Homo sapiens, UniProt P43235)", "sequence (P43235 115-329, species assumed)": "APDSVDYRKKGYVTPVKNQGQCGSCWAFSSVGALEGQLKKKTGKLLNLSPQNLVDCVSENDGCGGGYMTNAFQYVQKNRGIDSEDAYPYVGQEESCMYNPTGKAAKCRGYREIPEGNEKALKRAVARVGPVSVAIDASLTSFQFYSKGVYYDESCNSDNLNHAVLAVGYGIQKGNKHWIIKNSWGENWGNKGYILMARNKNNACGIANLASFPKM", "assay": "biochemical", "method": "(§1) RTD-1 inhibition of Cat B (BPS Bioscience, San Diego, CA) and Cats C, H, K, L, S, and V (R & D Systems) was analyzed in a 96 well format with enzyme-specific substrates per manufacturer’s instructions and as described in Table 1. The activity of each enzyme was determined in the presence of 0 to 50 μg/ml RTD-1.\n(§2) Inhibition of MMPs by RTD-1 was performed as described, incubating each enzyme with 0–100 μg/ml of RTD-1. IC50 values were calculated by GraphPad Prism 5.01 (GraphPad Software, San Diego, CA) utilizing a non-linear curve fit of log [inhibitor] versus response with variable slope."}, "[5]": {"biological_target": "Cathepsin L (Homo sapiens, UniProt P07711)", "sequence (P07711 114-333, species assumed)": "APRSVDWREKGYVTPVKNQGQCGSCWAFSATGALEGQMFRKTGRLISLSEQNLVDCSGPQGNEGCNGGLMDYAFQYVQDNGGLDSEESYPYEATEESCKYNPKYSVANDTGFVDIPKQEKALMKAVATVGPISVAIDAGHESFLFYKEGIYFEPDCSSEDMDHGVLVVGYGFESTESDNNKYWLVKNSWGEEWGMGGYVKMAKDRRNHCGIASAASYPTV", "assay": "biochemical", "method": "as §1, §2"}, "[6]": {"biological_target": "MMP-13 (Homo sapiens, UniProt P45452)", "assay": "biochemical", "method": "as §2"}, "[7]": {"biological_target": "MMP-3 (Homo sapiens, UniProt P08254)", "sequence (P08254 100-477, species assumed)": "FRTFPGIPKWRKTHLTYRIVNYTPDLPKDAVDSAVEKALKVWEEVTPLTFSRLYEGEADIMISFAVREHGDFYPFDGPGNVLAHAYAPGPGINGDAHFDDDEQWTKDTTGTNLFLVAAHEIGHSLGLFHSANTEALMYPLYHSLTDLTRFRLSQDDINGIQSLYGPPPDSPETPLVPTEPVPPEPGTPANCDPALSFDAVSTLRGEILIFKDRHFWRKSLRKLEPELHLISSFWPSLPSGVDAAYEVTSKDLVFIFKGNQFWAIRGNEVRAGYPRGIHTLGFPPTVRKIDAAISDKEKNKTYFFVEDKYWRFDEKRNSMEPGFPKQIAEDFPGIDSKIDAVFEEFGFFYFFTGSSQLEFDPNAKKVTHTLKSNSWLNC", "assay": "biochemical", "method": "as §2"}, "[8]": {"biological_target": "MMP-14 (Homo sapiens, UniProt P50281)", "assay": "biochemical", "method": "as §2"}, "[9]": {"biological_target": "MMP-1 (Homo sapiens, UniProt P03956)", "sequence (P03956 100-469, species assumed)": "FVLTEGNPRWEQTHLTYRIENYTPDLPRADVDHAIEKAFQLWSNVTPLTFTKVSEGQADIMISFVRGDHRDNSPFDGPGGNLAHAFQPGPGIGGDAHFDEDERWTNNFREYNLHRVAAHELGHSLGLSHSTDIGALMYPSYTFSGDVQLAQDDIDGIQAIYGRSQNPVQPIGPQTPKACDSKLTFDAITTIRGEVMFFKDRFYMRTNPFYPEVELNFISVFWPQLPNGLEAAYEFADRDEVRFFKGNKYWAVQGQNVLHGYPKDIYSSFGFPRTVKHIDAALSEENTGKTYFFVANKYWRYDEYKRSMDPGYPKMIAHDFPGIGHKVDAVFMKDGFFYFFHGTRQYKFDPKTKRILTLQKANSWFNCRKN", "assay": "biochemical", "method": "as §2"}, "[10]": {"biological_target": "MMP-2 (Homo sapiens, UniProt P08253)", "sequence (P08253 110-660, species assumed)": "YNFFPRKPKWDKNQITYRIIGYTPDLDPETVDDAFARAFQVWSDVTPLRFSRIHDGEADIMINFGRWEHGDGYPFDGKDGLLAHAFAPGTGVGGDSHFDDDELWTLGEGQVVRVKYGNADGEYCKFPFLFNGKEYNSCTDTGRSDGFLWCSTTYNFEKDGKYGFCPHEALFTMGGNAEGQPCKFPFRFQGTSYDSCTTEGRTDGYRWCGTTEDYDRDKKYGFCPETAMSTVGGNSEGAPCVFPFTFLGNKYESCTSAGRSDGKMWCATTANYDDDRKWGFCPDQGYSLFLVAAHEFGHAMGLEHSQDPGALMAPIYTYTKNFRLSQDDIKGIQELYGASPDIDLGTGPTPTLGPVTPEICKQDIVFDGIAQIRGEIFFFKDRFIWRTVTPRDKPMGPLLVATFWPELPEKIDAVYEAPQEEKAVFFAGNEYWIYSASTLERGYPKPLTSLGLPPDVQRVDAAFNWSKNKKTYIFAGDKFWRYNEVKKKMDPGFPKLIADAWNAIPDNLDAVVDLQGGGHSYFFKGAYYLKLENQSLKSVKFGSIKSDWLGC", "assay": "biochemical", "method": "as §2"}, "[11]": {"biological_target": "MMP-8 (Homo sapiens, UniProt P22894)", "sequence (P22894 101-467, species assumed)": "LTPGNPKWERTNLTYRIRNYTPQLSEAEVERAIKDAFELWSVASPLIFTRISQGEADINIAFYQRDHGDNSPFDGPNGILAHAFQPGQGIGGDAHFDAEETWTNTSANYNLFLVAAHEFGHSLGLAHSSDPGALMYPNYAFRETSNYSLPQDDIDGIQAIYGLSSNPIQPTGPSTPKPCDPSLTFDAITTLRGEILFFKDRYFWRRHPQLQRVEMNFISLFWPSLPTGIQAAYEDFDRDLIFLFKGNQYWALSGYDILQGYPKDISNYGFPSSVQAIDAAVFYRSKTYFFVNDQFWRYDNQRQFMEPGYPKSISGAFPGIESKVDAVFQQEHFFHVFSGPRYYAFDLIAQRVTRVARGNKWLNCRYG", "assay": "biochemical", "method": "as §2"}, "[12]": {"biological_target": "MMP-9 (Homo sapiens, UniProt P14780)", "sequence (P14780 94-707, species assumed)": "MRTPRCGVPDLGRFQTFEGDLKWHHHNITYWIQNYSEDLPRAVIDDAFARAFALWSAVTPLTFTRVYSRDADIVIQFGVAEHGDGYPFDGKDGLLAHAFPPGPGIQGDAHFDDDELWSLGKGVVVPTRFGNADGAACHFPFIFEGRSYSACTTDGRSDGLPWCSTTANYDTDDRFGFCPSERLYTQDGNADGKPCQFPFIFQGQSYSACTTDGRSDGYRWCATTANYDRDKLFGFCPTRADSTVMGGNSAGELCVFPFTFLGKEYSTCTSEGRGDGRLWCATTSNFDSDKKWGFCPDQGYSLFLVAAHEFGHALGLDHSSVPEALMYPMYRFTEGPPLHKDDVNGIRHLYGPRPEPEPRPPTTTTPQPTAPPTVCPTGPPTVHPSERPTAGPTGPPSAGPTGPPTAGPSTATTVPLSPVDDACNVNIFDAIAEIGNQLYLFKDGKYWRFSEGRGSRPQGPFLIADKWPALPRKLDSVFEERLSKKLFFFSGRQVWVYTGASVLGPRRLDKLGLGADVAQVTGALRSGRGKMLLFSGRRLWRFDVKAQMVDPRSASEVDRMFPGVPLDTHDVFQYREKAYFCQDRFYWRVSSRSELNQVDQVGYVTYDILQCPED", "assay": "biochemical", "method": "as §2"}, "[13]": {"details": "male, Sprague Dawley, rat, sc, 5 mg/kg"}, "[14]": {"details": "single 5 mg/kg s.c., male Sprague Dawley rats, n = 4, SPE, RP-UPLC/ESI-MS, 2-compartment population model"}}, "note": "Bridge positions count the residues as written; N and C are the ends. Peptide text beside a SMILES is read from it.", "data": [{"smiles": "CC[C@H](C)[C@@H]1NC(=O)[C@@H]2CSSC[C@H](NC(=O)[C@H](CCCNC(=N)N)NC(=O)[C@@H]3CSSC[C@H](NC1=O)C(=O)N[C@@H]([C@@H](C)O)C(=O)N[C@@H](CCCNC(=N)N)C(=O)NCC(=O)N[C@@H](Cc1ccccc1)C(=O)N3)C(=O)N[C@@H](CC(C)C)C(=O)N[C@H]1CSSC[C@H](NC(=O)[C@H](C(C)C)NC(=O)CNC(=O)[C@H](CCCNC(=N)N)NC(=O)[C@H](CCCNC(=N)N)NC1=O)C(=O)N[C@@H](CCCNC(=N)N)C(=O)N2", "note": "[RTD-1, rhesus θ-defensin 1] (cyclo(GFCRCLCRRGVCRCICTR); disulfide 3-16, 5-14, 7-12)", "values": [{"measurement": "clearance", "setting": "[1]; [13]", "value": 3.55, "unit": "mL/h/kg"}, {"measurement": "half-life", "setting": "[1]; [13]", "value": 32.3, "unit": "h"}, {"measurement": "distribution clearance", "setting": "[1]; [14]", "value": 22.3, "unit": "mL/h/kg"}, {"measurement": "distribution half-life", "setting": "[1]; [14]", "value": 0.285, "unit": "h"}, {"measurement": "inhibition of FLS invasion", "setting": "[2]", "value": 50, "unit": "%"}, {"measurement": "complete resolution of disease (AS = 0), share of animals", "setting": "[3]; 5 mg/kg s.c. daily for 11 days, 9 of 31 animals, saline 2.5% (1 of 40)", "value": 29, "unit": "%"}, {"measurement": "reduction of mean arthritis severity score (AS) at the end of the observation period compared with vehicle controls", "setting": "[3]; 5 mg/kg s.c. daily for 11 days, DA rats with PIA, AS ≥ 3 at start, 6 independent experiments", "value": 69, "unit": "%"}, {"measurement": "disease resolution by dosing interval", "setting": "[3]; 5 mg/kg s.c. daily, or once every 2, 3, or 5 days, n = 5 per group, single experiment", "value": "equivalent disease resolution"}, {"measurement": "rate of complete disease resolution on day 11, comparison with RA drugs", "setting": "[3]; RTD-1 s.c. (4 of 16), MTX 0.25 mg/kg i.p. q3d (1 of 22), etanercept 0.4 mg/kg s.c. q3d (0 of 21), saline 0 of 19, 2 independent experiments", "value": 25, "unit": "%"}, {"measurement": "therapeutic effect on AS compared to vehicle control", "setting": "[3]; daily s.c. 0.2 mg/kg", "value": "no therapeutic effect"}, {"measurement": "reduction in AS compared to vehicle control", "setting": "[3]; daily s.c. 1 mg/kg", "value": "modest, but not statistically significant reductions in AS"}, {"measurement": "reduction in AS compared to vehicle control by treatment day 3", "setting": "[3]; daily s.c. 3 or 5 mg/kg, 2 independent experiments", "value": "significant (P ≤ 0.0015) and similar reductions in AS"}, {"measurement": "IC50", "setting": "[4]; IC50, substrate z-FR-AMC 10 μM, enzyme 0.77 nM, RTD-1 0-50 μg/ml", "value": "0.027 ± 0.02", "unit": "µM"}, {"measurement": "IC50", "setting": "[4]; IC50 against cathepsin K, as quoted in running text from Table 1", "value": "~0.027", "unit": "µM"}, {"measurement": "IC50", "setting": "[5]", "value": "1.4 ± 0.3", "unit": "µM"}, {"measurement": "IC50", "setting": "[6]", "value": "11 ± 0.4", "unit": "µM"}, {"measurement": "IC50", "setting": "[7]", "value": "> 50", "unit": "µM"}, {"measurement": "IC50", "setting": "[8]", "value": "7.8 ± 0.3", "unit": "µM"}, {"measurement": "IC50", "setting": "[9]", "value": "> 50", "unit": "µM"}, {"measurement": "IC50", "setting": "[10]", "value": "19.6 ± 0.04", "unit": "µM"}, {"measurement": "IC50", "setting": "[11]", "value": "12 ± 0.05", "unit": "µM"}, {"measurement": "IC50", "setting": "[12]", "value": "11.1 ± 0.2", "unit": "µM"}]}]}
